Measurements taken from paper PMC10610505, “Synthesis and Biological Evaluation of Some New 3-Aryl-2-thioxo-2,3-dihydroquinazolin-4(1H)-ones and 3-Aryl-2-(benzylthio)quinazolin-4(3H)-ones as Antioxidants; COX-2, LDHA, α-Glucosidase and α-Amylase Inhibitors; and Anti-Colon Carcinoma and Apoptosis-Inducing Agents” (Pharmaceuticals, 2023).
“And” between values parts separate entries of the source, which are not always exact repeats. Equal entries are not always repeated. Where two headings read alike, the source gives them in different places.

Columns and labels:
[1] = test system: LoVo human colon carcinoma cells; test: Viability assay (LDH release), LoVo; format: cell-based; conditions: Homo sapiens, LoVo; for viability at 200 µg/mL: 48 h, read-out: Mean % of viable cells ± SD, LoVo; for IC50: from concentration–response curves
Protocol: (§1) The anticancer activities of all the synthesized compounds were assessed against two human colon carcinoma cell lines, namely LoVo and HCT-116 (Table 6), via the determination of the mean percents of the viable cancerous cells remaining after being incubated with 200 µg/mL of each test compound for 48 h using LDH assay.
(§2) The samples were diluted in Dulbecco’s Modified Eagle’s Medium, consisting of 10% fetal bovine serum (FBS), added to cells grown and cultured for 24 h in a 5% CO2-humidified incubator at 37 °C. Thereafter, the activity of lactate dehydrogenase released from damaged cells was determined in the collected supernatant aliquots using an ELISA end-point assay (Benchmark Plus, Bio-Rad, CA, USA); 0.1% Triton X-100 in the assay medium and the assay medium only were used as the positive and negative controls, respectively. Cell viability was expressed as a relative percentage of the OD values (at 550 nm) for compound-treated cells (final concentration of 200 µg /mL) and the negative control, which was shown as the mean % ± SD (n = 3). The results of the viability assays for the potential cytotoxic candidates were compared with the % of viable human umbilical vein endothelial cells (HUVEC) at the same concentration. These cells were grown in Dulbecco’s Modified Eagle’s Medium (PAN-Biotech; Barcelona, Spain) containing 10% FBS (Sigma Aldrich; St. Quentin-Fallavier, France), 2 mM Glutamine (Sigma Aldrich), 100 units/mL penicillin and […] streptomycin (Life Technologies; Paisley, UK).

[2] = DPPH radical scavenging assay; format: biochemical; conditions: for Mean IC50 for scavenging initial DPPH radicals: mean ± SD of three replicates; for IC50: mean ± SD, converted from mg/mL, read-out: Mean IC50 for scavenging initial DPPH radicals (converted)
Excerpt: In principle, the antioxidant power of a compound in this assay is correlated to its tendency to reduce the stable, purple-colored DPPH radical through a hydrogen atom transfer (HAT) mechanism and/or a single electron transfer mechanism, thereby converting it to the yellow-colored 2,2-diphenyl-1-picrylhydrazine, whereby this reduction is accompanied by a depletion in the amount of the initial DPPH radicals and a change in the absorbance of the test solution accordingly, which can be detected relative to the blank solution at λ = 517 nm.
The antioxidant potencies of all synthesized compounds were investigated using a 1,1 diphenyl-2-picrylhydrazyl (DPPH) radical scavenging assay according to the protocol described by Bersuder et al.. In brief, a 0.5 mL volume of DPPH ethanolic solution was mixed with an equal volume of each sample concentration (i.e., the test compound or butylated hydroxytoluene, BHT, which was used as the reference antioxidant in the positive control experiment), shaken strongly, and incubated at room temperature for 1 h in darkness. The absorbance of the residual DPPH radicals was measured at λ = 519 nm and compared to the negative control (without the test compound or reference antioxidant). The DPPH radical scavenging power was calculated using the following formula: scavenging efficiency (%) = (1 − Acompound/AControl) × 100, where Acompound and Acontrol are the absorbance of the tested compound and the negative control, respectively. […] Additionally, the ± SD values were calculated from three independent triplicate measurements.

[3] = molecular target: purified recombinant human LDHA protein (Homo sapiens, UniProt P00338); test: Lactate dehydrogenase A (LDHA) inhibitory assay; format: biochemical; conditions: for inhibition at 100 µg/mL: at 0.1 mg/mL; for inhibition at 100 µg/mL / inhibition at 200 µg/mL: read-out: LDHA mean % inhibition ± SD; for inhibition at 200 µg/mL: at 0.2 mg/mL; for Fold change of LDHA inhibition as compared to 0.1 mg/mL: % inhibition at 0.200 mg/mL divided by % inhibition at 0.100 mg/mL
Protocol: The LDHA inhibitory effectiveness was investigated by measuring the amounts of consumed NADH [73]. […] The fluorescence of NADH, which has an excitation wavelength of 340 nm and an emission wavelength of 460 nm, was detected using a spectrofluorometer. […] The LDHA inhibitory efficiency was expressed as an inhibition percentage, which was determined via a comparison with the negative control experiments.

COX-2 = molecular target: T1, COX-2 (Homo sapiens, UniProt P35354); test: COX-2 inhibitory screening assay (Cayman kit); format: biochemical; conditions: for Increase in COX-2 inhibitory efficiency by duplicating the concentration: % inhibition at 0.200 mg/mL divided by % inhibition at 0.100 mg/mL; for inhibition at 100 µg/mL: at 0.100 mg/mL; for inhibition at 100 µg/mL / inhibition at 200 µg/mL: read-out: COX-2 mean % inhibition ± SD; for inhibition at 200 µg/mL: at 0.200 mg/mL
T1 construct: purchased Cayman Chemical Company 701080
T1 sequence (P35354 18-604): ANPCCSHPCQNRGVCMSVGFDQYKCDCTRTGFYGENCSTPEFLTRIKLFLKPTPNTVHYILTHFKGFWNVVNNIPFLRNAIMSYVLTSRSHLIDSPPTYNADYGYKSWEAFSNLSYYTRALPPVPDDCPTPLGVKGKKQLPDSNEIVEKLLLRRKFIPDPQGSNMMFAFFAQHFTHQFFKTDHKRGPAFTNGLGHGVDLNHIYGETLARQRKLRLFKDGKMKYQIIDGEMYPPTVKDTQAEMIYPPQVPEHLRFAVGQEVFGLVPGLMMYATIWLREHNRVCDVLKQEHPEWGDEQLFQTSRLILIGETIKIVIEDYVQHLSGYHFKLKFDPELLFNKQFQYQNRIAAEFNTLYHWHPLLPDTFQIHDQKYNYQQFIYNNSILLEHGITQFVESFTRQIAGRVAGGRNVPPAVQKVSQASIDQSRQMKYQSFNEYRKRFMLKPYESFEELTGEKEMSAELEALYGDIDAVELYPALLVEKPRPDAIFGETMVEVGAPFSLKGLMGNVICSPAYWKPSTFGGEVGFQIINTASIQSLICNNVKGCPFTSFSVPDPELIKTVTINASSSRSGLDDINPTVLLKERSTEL
Protocol: Each compound of the two series, 3a–h and 5a–h, was resuspended in 100% DMSO at a final concentration of 10 mg/mL. […] Briefly, 10 µL of the tested compound was added to a mixture of the reaction buffer solution (160 µL of 0.1 M Tris-HCl, pH 8.0, in the presence of 2 mM phenol and 5 mM EDTA), COX-2 (10 µL) and heme (10 µL). After a 10 min incubation at 37 °C, the reaction was started by adding arachidonic acid (10 µL), rapidly mixed and kept at 37 °C for 2 min. PGF2α generated via PGH2 reduction with stannous chloride (30 µL) was incubated at room temperature for 5 min. The PGF2α amount was then determined via an enzyme immunoassay. Prior to incubation with the COX-2 reaction (at room temperature 18 h), the 96-well plate was previously coated with a mouse anti-rabbit monoclonal antibody. Unbound reagents were removed by washing the plate followed by adding Ellman’s reagent to the well. The reaction product displaying a distinct yellow color was measured at 410 nm using a UV microplate reader. The % inhibition was calculated by comparing the PGF2α produced in the compound-treated samples with a control sample, using the following equation: % inhibition is equal to [([PGF2α]control − [PGF2α]sample) /[PGF2α ]control ] × 100. […] The COX-2 inhibitory efficiency was expressed as an inhibition percentage, which was determined via a comparison with the negative control experiments.

α-amylase = test: In vitro α-amylase (AA) inhibition assay; conditions: mean ± SD of three replicates; for IC50: read-out: Mean IC50 α-Amylase (AA)
Protocol: Then, 180 µL of Labtest (the amylase substrate) was added and the samples were incubated for 8 min, followed by measuring the first reaction at 620 nm to obtain (X1). Afterwards, the reaction mixture was incubated for an additional 5 min at 37 °C; then, the second reaction was measured to obtain the final reading (X2). […] The results were expressed as IC50 µg/mL (as well as µM) and were determined from the standard curves.

[4] = Viability assay (LDH release), HUVEC; format: cell-based, human; conditions: human
Protocol: as §2

[5] = test system: HCT-116 human colon carcinoma cells; test: Viability assay (LDH release), HCT-116; format: cell-based; conditions: Homo sapiens; for viability at 200 µg/mL: read-out: Mean % of viable cells ± SD, HCT-116; for IC50: HCT-116, from concentration–response curves
Protocol: as §1, §2

[6] = human umbilical vein endothelial cells (HUVEC), 200 µg/mL, read-out: Mean % of viable cells ± SD, HUVEC

Compound | viability at 200 µg/mL [1] [%] | IC50 [1] | Mean IC50 for scavenging initial DPPH radicals [2] [µg/mL] | IC50 [2] [µM] | inhibition at 100 µg/mL [3] [%] | inhibition at 200 µg/mL [3] [%] | IC50 ([3]; mean ± SD of three replicates) [µM] | Increase in COX-2 inhibitory efficiency by duplicating the concentration (COX-2) [fold] | inhibition at 100 µg/mL (COX-2) [%] | inhibition at 200 µg/mL (COX-2) [%] | IC50 (COX-2; mean ± SD of three replicates) [µM] | Mean IC50 α-Amylase (AA) (α-amylase) [µg/mL] | IC50 (α-amylase) [µM] | viability at 200 µg/mL [4, 6] [%] | viability at 200 µg/mL ([5]; HCT-116, 48 h) [%] | IC50 [5] | Fold change of LDHA inhibition as compared to 0.1 mg/mL [3] [fold] | viability at 200 µg/mL [4] [%] | viability at 200 µg/mL ([1]; 200 µg/mL) [%] | viability at 200 µg/mL ([5]; HCT-116, 200 µg/mL, 48 h) [%]
O=c1c2cc(Br)ccc2[nH]c(=S)n1-c1ccc([N+](=O)[O-])cc1 [Compound 3g, 6-Bromo-3-(4-nitro-phenyl)-2-thioxo-2,3-dihydro-1H-quinazolin-4-one] | 55.7 ± 3.06 | 222 µg/mL and 586 µM | 62.5 ± 2 | 165 | 68.2 ± 4.6 | 100 | 242 | 1.65 | 60 ± 2.83 | 98.9 ± 1.56 | 252 | 179.333 ± 7.768 | 474 | 98.7 ± 1.16 | 42.3 ± 2.52 | 168 µg/mL and 444 µM |  |  |  | 
COc1cc2[nH]c(=S)n(-c3cccc(C(F)(F)F)c3)c(=O)c2cc1OC [Compound 3c, 6,7-Dimethoxy-2-thioxo-3-(3-trifluoromethyl-phenyl)-2,3-dihydro-1H-quinazolin-4-one] | 47.3 ± 2.52 | 275 µg/mL and 720 µM | 100 ± 14 | 262 | 17.8 ± 1.56 | 30.8 ± 1.77 |  | 2.05 | 9.85 ± 1.63 | 20.2 ± 1.13 |  | 92.000 ± 3.000 | 241 |  | 65 ± 3.61 | 281 µg/mL and 735 µM | 0.20 | 99.67 ± 0.577 |  | 
O=c1c2cc(Br)ccc2nc(SCc2ccc(Cl)cc2)n1-c1cccc(C(F)(F)F)c1 [Compound 5b, 2-(4-Chloro-benzylsulfanyl)-6-bromo-3-(3-trifluoromethyl-phenyl)-3H-quinazolin-4-one] |  | 161 µg/mL and 306 µM | 167 ± 10 | 318 | 14.5 ± 1.13 | 22.5 ± 1.7 |  | 2.11 | 9.25 ± 1.77 | 19.5 ± 2.12 |  | 162.000 ± 5.568 | 308 | 96.33 ± 0.577 |  | 246 µg/mL and 468 µM | 1.55 |  | 37.7 ± 2.52 | 60.3 ± 2.52
O=c1c2cc(Cl)ccc2[nH]c(=S)n1-c1ccc(C(F)(F)F)cc1 [Compound 3d, 6-Chloro-2-thioxo-3-(4-trifluoromethyl-phenyl)-2,3-dihydro-1H-quinazolin-4-one] | 87 ± 1.73 |  | 179 ± 16 | 502 | 33.5 ± 2.12 | 53.5 ± 2.12 |  | 1.62 | 20.2 ± 1.13 | 32.8 ± 2.48 |  | 335.667 ± 3.055 | 941 |  | 96 ± 1.73 |  | 1.59 |  |  | 
O=c1c2cc(Br)ccc2[nH]c(=S)n1-c1ccc(C(F)(F)F)cc1 [Compound 3e, 6-Bromo-2-thioxo-3-(4-trifluoromethyl-phenyl)-2,3-dihydro-1H-quinazolin-4-one] | 90.7 ± 3.51 |  | 290 ± 28 | 723 | 22.1 ± 1.2 | 36 ± 1.34 |  | 1.50 | 10.4 ± 1.7 | 15.7 ± 0.495 |  | 252.00 ± 4.583 | 628 |  | 92.3 ± 2.52 |  | 1.62 |  |  | 
O=c1c2cc(Br)ccc2nc(SCc2cccc([N+](=O)[O-])c2)n1-c1ccc([N+](=O)[O-])cc1 [Compound 5g, 2-(3-Nitro-benzylsulfanyl)-6-bromo-3-(4-nitro-phenyl)-3H-quinazolin-4-one] | 74.7 ± 2.52 |  | 200 ± 14 | 390 | 15.8 ± 2.05 | 27.7 ± 2.55 |  | 1.83 | 14.2 ± 1.77 | 26 ± 2.83 |  | 339.000 ± 4.000 | 660 |  | 66.3 ± 3.06 |  | 1.75 |  |  | 
